As usually defined, the IC50 is the midpoint of a concentration-inhibition curve. A low value points to greater potency.

The record followed here is publication PMC7596714, “Acute EPA-induced learning and memory impairment in mice is prevented by DHA” (Nature Communications, 2020).

The assay has as its target T1, 5-HT6R (5-hydroxytryptamine6 receptor, serotonin 6 receptor) (Homo sapiens, UniProt P50406).
T1 construct: gene HTR6
The experiment in a line: radioligand competition with [3H]-LSD; supported by cAMP accumulation in […] cells with human 5-HT6R plasmid. It counts as binding. (In general: Loss of bound radioactivity is the signal in a displacement assay; it reports binding, not function.)

T1 sequence (P50406 whole entry): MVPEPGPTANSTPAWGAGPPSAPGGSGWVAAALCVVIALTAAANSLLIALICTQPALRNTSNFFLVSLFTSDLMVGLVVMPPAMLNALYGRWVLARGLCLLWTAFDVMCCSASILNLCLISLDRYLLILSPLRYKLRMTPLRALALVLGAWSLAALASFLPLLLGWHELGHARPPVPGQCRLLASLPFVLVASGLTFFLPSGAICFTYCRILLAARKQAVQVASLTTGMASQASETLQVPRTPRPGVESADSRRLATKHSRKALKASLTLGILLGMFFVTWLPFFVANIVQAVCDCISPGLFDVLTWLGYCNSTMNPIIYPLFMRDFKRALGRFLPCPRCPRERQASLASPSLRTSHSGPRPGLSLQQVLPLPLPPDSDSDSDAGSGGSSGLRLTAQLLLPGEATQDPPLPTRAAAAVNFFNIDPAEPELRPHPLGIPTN

The molecule `CC/C=C\C/C=C\C/C=C\C/C=C\C/C=C\CCCC(=O)O` [EPA, Eicosapentaenoic acid] came in with an IC50 of 26.6 µM.
